Results on 17 molecules are retold here after patent US8012982B2, “Modulators of HCV replication” (priority 2004, dated 2011).

Where two headings read alike, the source gives them in different places. Some results are limits rather than exact numbers.

The test system of data set [1] is HCV replicon in resistant clone 10AB11. Kind of data set: microbe, parasite or virus in culture. The class given is cell-based. To be noted: Hepatitis C virus, Cell-ELISA, read-out: IC50 Compound (Ib). (In general: ELISA stands for enzyme-linked immunosorbent assay.)
Data set [2] concerns non-adapted replicons derived from the BK isolate of HCV. The class given is cell-based.
Data set [3] deals with pHCVNeo17.m30 replicon. The class given is cell-based. As to conditions: replicon pHCVNeo17.m30: H2057R. Background: Replicon systems follow genome replication, usually without infectious particles.
Data set [4] deals with HCV replicon in resistant clone 10AB7. Kind of data set: microbe, parasite or virus in culture. The class given is cell-based. As to conditions: Hepatitis C virus, Cell-ELISA, read-out: IC50 Compound (Ib).
The conditions of data set [5]: relative to concentrations effective on the replicon.
In data set [6] the test system is pHCVNeo17.m5 replicon. Kind of data set: microbe, parasite or virus in culture. Format: cell-based. As to conditions: Hepatitis C virus; replicon pHCVNeo17.m5: K@2039; read-out: Cmpd Ib IC50.
Data set [7] deals with HCV replicon in HBI10A cells. Kind of data set: microbe, parasite or virus in culture. As to conditions: Hepatitis C virus. Format: cell-based.
Data set [8] relates to pHCVNeo17.wt replicon. The class given is cell-based. To be noted: for Replicon Activation Yes/No: pHCVNeo17.wt replicon in 10AIFN cells, cultured 4 days, Cell-ELISA.
The test system of data set [9] is HCV replicon in resistant clone 10AB3. Kind of data set: microbe, parasite or virus in culture. The class given is cell-based. To be noted: Hepatitis C virus, Cell-ELISA, read-out: IC50 Compound (Ib).
Data set [10] deals with HCV replicons derived from the Con1 isolate in human HeLa cells. The class given is cell-based.
In data set [11] the test system is pBK-RMSI replicon. Description: microbe, parasite or virus in culture. As to conditions: Hepatitis C virus, 96 h; subgenomic pBK-RMSI, BK, R1496M + S2204I; 10AIFN cells, four days after transfection. The class given is cell-based.
The test system of data set [12] is pHCVNeo17.m10 replicon. Description: microbe, parasite or virus in culture. The class given is cell-based. As to conditions: pHCVNeo17.m10 replicon in 10AIFN cells, cultured 4 days, Cell-ELISA, read-out: Replicon Inhibition Range IC50.
Data set [13] concerns pHCVNeo17.m35 replicon. The class given is cell-based. As to conditions: replicon pHCVNeo17.m35: Y2065H.
In data set [14] the test system is pHCVNeo17.RG replicon. Description: microbe, parasite or virus in culture. Format: cell-based. To be noted: Hepatitis C virus, 96 h; subgenomic pHCVNeo17.RG, Con1, R2884G; 10AIFN cells, four days after transfection.
The test system of data set [15] is pFL.m10 genomic replicon (adapted full length HCV genome). Format: cell-based, HCV isolate Con1.
Data set [16] has as its target NS5A protein (Hepatitis C virus genotype 1b, UniProt Q9WMX2, INS2039K). The class given is cell-based. As to conditions: HBI10A cells, 2 μM compound (Ib), pulse-chase.
Data set [17] deals with HCV replicon in resistant clone 10AB2. Kind of data set: microbe, parasite or virus in culture. The class given is cell-based. To be noted: Hepatitis C virus, Cell-ELISA, read-out: IC50 Compound (Ib).
Data set [18] has as its system HCV replicons derived from the Con1 isolate in mouse hepatoma cell line Hepa1-6. Format: cell-based.
Data set [19] deals with pHCVNeo17.SI replicon. Description: microbe, parasite or virus in culture. Format: cell-based. To be noted: Hepatitis C virus, 96 h; subgenomic pHCVNeo17.SI, Con1, S2204I; 10AIFN cells, four days after transfection.
The test system of data set [20] is HCV replicons in resistant cell clones. Format: cell-based. To be noted: fold increase of IC50.
Data set [21] concerns non-adapted full length Con1 genomes. The class given is cell-based. To be noted: lesser extent than with the corresponding replicons.
In data set [22] the test system is cell proliferation. As to conditions: relative to concentrations effective on the replicon.
Data set [23] has as its system pHCVNeo17.m50 replicon. Kind of data set: microbe, parasite or virus in culture. To be noted: Hepatitis C virus; replicon pHCVNeo17.m50: K@2039, R2129W; read-out: Cmpd Ib IC50. Format: cell-based.
Data set [24] relates to pHCVNeo17.m36 replicon. Kind of data set: microbe, parasite or virus in culture. As to conditions: Hepatitis C virus; replicon pHCVNeo17.m36: K@2039, Y2065H; read-out: Cmpd Ib IC50. Format: cell-based.
The subject of data set [25] is pHCVNeo17.m21 replicon. Kind of data set: microbe, parasite or virus in culture. To be noted: Hepatitis C virus; replicon pHCVNeo17.m21: K@2039, S2404P; read-out: Cmpd Ib IC50. The class given is cell-based.
Data set [26] relates to pHCVNeo17.m29 replicon. Kind of data set: microbe, parasite or virus in culture. Format: cell-based. To be noted: Hepatitis C virus, read-out: Cmpd Ib IC50 (μM).

Regarding `CC(C)(C)OC(=O)N1CCN(c2ccc(C(=O)Nc3ccc(O)cc3)cc2)CC1` [Example 101, tert-butyl 4-(4-{[(4-hydroxyphenyl)amino]carbonyl}phenyl)piperazine-1-carboxylate], the IC50 is more than 2000 nM in data set [1]; more than 2000 nM in data set [4]; 100 nM in data set [6]; 120 ± 60 nM in [7] (HBI10A replicon cells, read-out: IC50, dose-dependent inhibition of HCV replication); 100 ± 50 nM in data set [7] (parental clone HBI10A, Cell-ELISA, read-out: IC50 Compound (Ib)); more than 2000 nM in data set [9]. Moreover, the IC50 in data set [11] is 650 nM; in data set [12] (Hepatitis C virus, 96 h), less than 1000 nM; in data set [14], less than 50 nM; in data set [17], more than 2000 nM; in data set [19], 100 nM; in [23], more than 2000 nM. Further, the IC50 is more than 2000 nM in [24], 38 nM in data set [25] and more than 2 µM in data set [26]. For the same molecule, the “Activation of replication of non-adapted BK replicons” value in [2] is given as “activated replication”. Also, the “Cmpd Ib IC50 (μM)” value in data set [3] is “activation”; in data set [8] (replicon pHCVNeo17.Wt, no mutations), “^bactivation”; in data set [13] it was “No effect”. For the same molecule, the “Toxicity, MTT cytotoxicity assay” value in data set [5] is listed as “only at concentrations two orders of magnitude higher than those effective on the replicon”. Also, the “Replicon Activation Yes/No” value in [8] is listed as “Yes”. Besides, the “Inhibition of HCV replicons in HeLa cells” value in data set [10] is given as “inhibited with comparable potencies”. For the same molecule, in data set [15], the “Inhibition of replication of an adapted full length HCV genome” value is on record as “inhibited with comparable potency”. The “Conversion of NS5A p56 into hyperphosphorylated p58” value in [16] was “the rate and the extent of conversion of the p56 into p58 were reduced”. Further, the “Inhibition of HCV replicons in Hepa1-6 cells” value in data set [18] is recorded as “inhibited with comparable potencies”. The “IC50 in resistant cell clones relative to parental cells” value in data set [20] is given as “at least ten times higher”. The “Stimulation of replication of non-adapted full length Con1 genomes” value in data set [21] is recorded as “stimulated replication”. In data set [22], the “Inhibition of cell proliferation, 14C thymidine incorporation” value is listed as “only at concentrations two orders of magnitude higher than those effective on the replicon”.

On to `CC(C)(C)OC(=O)N1CCN(c2ccc(C(=O)Nc3cccc(Br)c3)cc2)CC1` [Example 103, tert-butyl 4-(4-{[(3-bromophenyl)amino]carbonyl}phenyl)piperazine-1-carboxylate], for which the “Replicon Activation Yes/No” value in data set [8] is reported as “No”. The IC50 in data set [12] (Hepatitis C virus, 96 h) was less than 1000 nM.

With `CC(=O)c1cccc(NC(=O)c2ccc(N3CCN(C(=O)OC(C)(C)C)CC3)cc2)c1` [Example 108, tert-butyl 4-(4-{[(3-acetylphenyl)amino]carbonyl}phenyl)piperazine-1-carboxylate], in data set [8], the “Replicon Activation Yes/No” value is on record as “No”. For the same molecule, in data set [12] (Hepatitis C virus, 96 h), the IC50 is more than 1000 nM.

Take `CC(C)(C)OC(=O)N1CCN(c2ccc(C(=O)Nc3ccc(C(=O)c4ccccc4)cc3)cc2)CC1` [Example 112, tert-butyl 4-(4-{[(4-benzoylphenyl)amino]carbonyl}phenyl)piperazine-1-carboxylate]: in data set [8], the “Replicon Activation Yes/No” value was “No”. The IC50 in data set [12] (Hepatitis C virus, 96 h) is less than 1000 nM.

In the case of `C=Cc1ccc(NC(=O)c2ccc(N3CCN(C(=O)OC(C)(C)C)CC3)cc2)cc1` [Example 115, tert-butyl 4-(4-{[(4-vinylphenyl)amino]carbonyl}phenyl)piperazine-1-carboxylate], the “Replicon Activation Yes/No” value in data set [8] was “No”. For the same molecule, the IC50 in data set [12] (Hepatitis C virus, 96 h) was more than 1000 nM.

In the case of `CC(C)(C)OC(=O)N1CCN(c2ccc(C(=O)Nc3ccc(/C=C/c4ccc(O)cc4)cc3)cc2)CC1` [Example 116, tert-butyl 4-{4-[({4-[(E)-2-(4-hydroxyphenyl)vinyl]phenyl}amino)carbonyl]phenyl}piperazine-1-carboxylate], the “Replicon Activation Yes/No” value in data set [8] is recorded as “No”. Besides, in [12] (Hepatitis C virus, 96 h), the IC50 is less than 1000 nM.

Turning to `CC(=O)Oc1ccc(NC(=O)c2ccc(N3CCN(C(=O)OC(C)(C)C)CC3)cc2)cc1` [Example 123, tert-butyl 4-[4-({[4-(acetyloxy)phenyl]amino}carbonyl)phenyl]piperazine-1-carboxylate], in [8], the “Replicon Activation Yes/No” value was “Yes”. The IC50 in data set [12] (Hepatitis C virus, 96 h) is less than 1000 nM.

For the molecule `CC(C)COC(=O)N1CCN(c2ccc(C(=O)Nc3ccc(O)cc3)cc2)CC1` [Example 201, isobutyl 4-(4-{[(4-hydroxyphenyl)amino]carbonyl}phenyl)piperazine-1-carboxylate], the “Replicon Activation Yes/No” value in [8] is given as “No”. In addition, the IC50 in data set [12] (Hepatitis C virus, 96 h) was more than 1000 nM.

For `O=C(Nc1ccc(O)cc1)c1ccc(N2CCN(C(=O)OCc3ccccc3)CC2)cc1` [Example 216, benzyl 4-(4-{[(4-hydroxyphenyl)amino]carbonyl}phenyl)piperazine-1-carboxylate], in data set [8], the “Replicon Activation Yes/No” value is “Yes”. The IC50 in [12] (Hepatitis C virus, 96 h) is less than 1000 nM.

Turning to `CC(C)(C)NC(=O)N1CCN(c2ccc(C(=O)Nc3ccc(O)cc3)cc2)CC1` [Example 302, N-(tert-butyl)-4-(4-{[(4-hydroxyphenyl)amino]carbonyl}phenyl)piperazine-1-carboxamide], in [8], the “Replicon Activation Yes/No” value is “Yes”. Further, the IC50 in [12] (Hepatitis C virus, 96 h) was less than 1000 nM.

As to `COc1ccc(CNC(=O)N2CCN(c3ccc(C(=O)Nc4ccc(O)cc4)cc3)CC2)cc1` [Example 303, 4-(4-{[(4-hydroxyphenyl)amino]carbonyl}phenyl)-N-(4-methoxybenzyl)piperazine-1-carboxamide], in [8], the “Replicon Activation Yes/No” value is “Yes”. The IC50 in data set [12] (Hepatitis C virus, 96 h) was less than 1000 nM.

On to `C[C@@H](NC(=O)N1CCN(c2ccc(C(=O)Nc3ccc(O)cc3)cc2)CC1)c1ccccc1` [Example 306, 4-(4-{[(4-hydroxyphenyl)amino]carbonyl}phenyl)-N-[(1R)-1-phenylethyl] piperazine-1-carboxamide], for which the “Replicon Activation Yes/No” value in data set [8] was “No”. Further, the IC50 in [12] was less than 1000 nM.

`O=C(Nc1ccc(O)cc1)c1ccc(N2CCN(C(=O)C3CCCCC3)CC2)cc1` [Example 401, 4-[4-(cyclohexylcarbonyl)piperazin-1-yl]-N-(4-hydroxyphenyl)benzamide]: in data set [8], the “Replicon Activation Yes/No” value is “No”. For the same molecule, the IC50 in [12] (Hepatitis C virus, 96 h) is less than 1000 nM.

Turning to `CC(C)(C)C(=O)N1CCN(c2ccc(C(=O)Nc3ccc(O)cc3)cc2)CC1` [Example 403, 4-[4-(2,2-dimethylpropanoyl)piperazin-1-yl]-N-(4-hydroxyphenyl)benzamide], the “Replicon Activation Yes/No” value in data set [8] is listed as “No”. In addition, in data set [12] (Hepatitis C virus, 96 h), the IC50 was less than 1000 nM.

For `O=C(Nc1ccc(O)cc1)c1ccc(N2CCN(S(=O)(=O)/C=C/c3ccccc3)CC2)cc1` [Example 503, N-(4-hydroxyphenyl)-4-(4-{[(E)-2-phenylvinyl]sulfonyl}piperazin-1-yl)benzamide], the “Replicon Activation Yes/No” value in data set [8] is reported as “No”. The IC50 in [12] (Hepatitis C virus, 96 h) is more than 1000 nM.

As for `CC(C)(C)OC(=O)N1CCC(c2ccc(C(=O)Nc3ccc(O)cc3)cc2)CC1` [Example 602, tert-butyl 4-(4-{[(4-hydroxyphenyl)amino]carbonyl}phenyl)piperidine-1-carboxylate], the “Replicon Activation Yes/No” value in data set [8] is “No”. Further, the IC50 in [12] (Hepatitis C virus, 96 h) was more than 1000 nM.

`CC(C)(C)OC(=O)N1CCN(c2ccc(NC(=O)c3ccc(O)cc3)cc2)CC1` [Example 603, tert-butyl 4-{4-[(4-hydroxybenzoyl)amino]phenyl}piperazine-1-carboxylate]: the “Replicon Activation Yes/No” value in data set [8] is “No”. In addition, the IC50 in [12] (Hepatitis C virus, 96 h) is more than 1000 nM.

For orientation: IC50 means the concentration at which inhibition is half-maximal.
